Test results reported in US20190201494A1, “COMPOSITIONS AND METHODS FOR TREATING NICOTINE WITHDRAWAL” (STC UNM, priority 2016, published 2019).
“Also recorded” adds a separate entry of the source.

Tested on: smokers, 36 hours of smoking abstinence
Experiment: Replication crossover study: Questionnaire on Smoking Urges-Brief on Day 2 of 36 hours smoking abstinence (Example 2)
Assay type: in vivo, human
Excerpt: Results from Day 2 are presented. The main differences between Example 1 and Example 2 are: (1) parallel vs crossover design, and (2) placebo content: the parallel design placebo was normal saline, the crossover design was 8.7% NaCl. The purpose of increasing the placebo salt content in the crossover study was to maintain the blind.
Study participants began their first night of smoking abstinence at 20:00 prior to reporting to the inpatient unit of University of New Mexico Clinical and Translational Science Center at 11:30 the following day. During Day 1 at the hospital, participants provided a CO sample, which had to be 50% of their measurement at screening or less than 7 ppm and a negative breath alcohol test (0.00%). Additional criteria for session continuation included negative urine drug test and vitals within normal limits as described in the “Participants” section above. The study nurse evaluated the nares for abnormalities and checked POC glucose to ensure subjects were within normal limits prior to receiving spray.
During Day 1, participants were administered spray at 12:40, ate lunch at 13:00 and completed appetite ratings and a snacking test. Participants ate dinner at 19:00 and lights were turned off at 21:00.
The following morning, participants completed Questionnaire of Smoking Urges at 7:50. Prior to this first questionnaire administration, participants provided a urine sample, which had to be negative for illicit substances, and a CO sample, which had to be either 50% lower than the value on day 1, or less than 7 ppm. An intravenous line was established at 6:45 and a baseline blood sample was drawn. Study nurse checked POC glucose and completed a nares evaluation to confirm participant was within normal limits to receive spray. Spray administration occurred at 8:00, followed by breakfast at 8:20. Post-spray Questionnaire of Smoking Urges was completed at 8:15, 8:45, 9:15, 9:45, 10:30 and 11:30. During this time blood samples were taken for additional analyses. At noon, study nurse evaluated the nares to rule out abnormality and checked POC glucose to ensure that results were within normal limits. The two sessions were separated by one week.
Urges to smoke were rated using the 10-item Questionnaire on Smoking Urges-Brief (Cox et al., 2001. Nicotine Tob Res 3(1):7-16) that consists of 10-questions. The answers are scored from 1 (strongly disagree) to 7 (strongly agree). These questions are the bases for the two factor derived subscales. Factor 1 subscale reflects a strong desire and intention to smoke with smoking perceived as rewarding. Factor 2 subscale reflects an anticipation of relief from negative affect with an urgent desire to smoke. These two subscales were sub-analyses stemming from our main (overall) QSU-Brief analysis. Cravings were measured at −15, 0, +20, +60, +70, +80, +90 and +120 minutes from spray administration on Day 2.
Placebo contained 8.7% NaCl. Per FDA approved protocol, the product was prepared in a biosafety cabinet of UNM Translational Radiopharmacy. Drug Preparation occurred 30 minutes before administration. […] or placebo was placed in a 10 mL amber glass bottle (Gerresheimer AG, Düsseldorf, Germany), which was capped with a 10 mg sterile nasal pump (Aero Pump GmbH, Hochheim, Germany). Assembled product was primed per manufacturer's recommendations before 0.6 ml volume was administered to study participants. In a randomized fashion, study nurse administered one spray in each nostril every three minutes for the total of six sprays of either insulin or placebo. As each spray delivers 0.1 ml of fluid, and the concentration of insulin in Novolin R is 100 IU/mL, administering six sprays delivers 60 IU of insulin.
Random coefficient models were constructed for analyzing study outcomes. Treatment, time, treatment by time interaction, and sequence were included as fixed effects. Time nested within subjects, and time nested within treatment nested within subjects were included as random effects. […]

## intranasal insulin: bulk human Regular insulin (U100 Novolin R, Novo Nordisk US), 100 IU/ml, six nasal sprays delivering 60 IU
60 IU intranasal, crossover, morning of Day 2, 36 hours abstinence, p≤0.05
  Smoking urges (Questionnaire of Smoking Urges) compared to placebo, replication study: decreased significantly; also recorded: This finding was replicated
60 IU, crossover, Day 2, p=0.18
  QSU-Brief Factor 2 compared to placebo, replication study: no effect; also recorded: not Factor 2 scale
60 IU, crossover, Day 2, p≤0.05
  QSU-Brief Factor 1 compared to placebo, replication study: significantly decreased; also recorded: the effect was driven by intranasal insulin's effect on Factor 1
SE(b)=0.87, z=1.34, p=0.18
  QSU-Brief Factor 2, effect of treatment, b, replication study: 1.16
SE(b)=1.15, z=2.16, p≤0.05
  QSU-Brief Factor 1, effect of treatment, b, replication study: 2.49
SE(b)=1.91, z=1.92, p≤0.05
  Smoking urges, effect of treatment, b, replication study: 3.67
